Experimental data from patent US7342014B2, “Diamine derivatives” (Daiichi Pharmaceutical Co., Ltd., priority 2001, dated 2008).
Counter-ions that a name gives are not always drawn.

Assays:
human FXa [1] = molecular target: T1, human FXa (Homo sapiens, UniProt P00742); test: Determination of human FXa-inhibiting effect (IC50 value); type: biochemical; conditions: human FXa, substrate S-2222, absorbance at 405 nm, room temperature; read-out: Human FXa-inhibiting effect (IC50)
T1 construct: purchased Enzyme Research Labolatories, Inc
From the text: Determination of Human FXa-inhibiting Effect (IC50 Value)
As a control, Tris buffer was used in place of the test compound.

human FXa [2] = molecular target: T1, human FXa; test: Determination of anti-FXa activity in rat plasma after oral administration; type: in vivo; conditions: rats, oral dose of 10 mg/kg, plasma collected 0.5, 1, 2 and 4 hours after administration, human FXa and S-2222; read-out: FXa-inhibiting activity (percent inhibition) in plasma
Protocol: Determination of Anti-FXa Activity in Rat Plasma After Oral Administration
(A) Administration and Blood Collection:
A drug solution (1 mg/ml) obtained by dissolving or suspending a test compound (10 mg) in 0.5% methyl cellulose (MC) was orally administered to rats (10 ml/kg). […] For rats of a control group, the same blood collection was conducted after a 0.5% MC solution was administered. Each blood sample was centrifuged at 1500×g for 10 minutes at 4° C. to separate plasma, and the plasma was preserved at −40° C. until it was used in the following determination of anti-FXa activity in plasma.
(B) Determination of FXa-inhibiting Activity in Plasma:
Tris buffer (100 mM Tris, 200 mM potassium chloride, 0.2% BSA, pH 7.4) (5456 μl), human FXa (2.5 U/ml, 44 μl) and water (550 μl) were mixed. The resultant human FXa solution was used in the following test.
The anti-FXa activity, i.e., percent inhibition (%) was calculated in accordance with the following equation: […]

T1 sequence (P00742 235-488 limits assumed): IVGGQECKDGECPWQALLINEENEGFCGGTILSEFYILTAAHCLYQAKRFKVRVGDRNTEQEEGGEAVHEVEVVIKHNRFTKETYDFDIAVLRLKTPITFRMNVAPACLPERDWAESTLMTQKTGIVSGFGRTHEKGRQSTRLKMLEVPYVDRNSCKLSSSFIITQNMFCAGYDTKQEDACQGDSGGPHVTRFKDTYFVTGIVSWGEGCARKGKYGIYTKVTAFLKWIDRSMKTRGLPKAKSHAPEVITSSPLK
T1 sequence (P00742 41-179 partner limits assumed): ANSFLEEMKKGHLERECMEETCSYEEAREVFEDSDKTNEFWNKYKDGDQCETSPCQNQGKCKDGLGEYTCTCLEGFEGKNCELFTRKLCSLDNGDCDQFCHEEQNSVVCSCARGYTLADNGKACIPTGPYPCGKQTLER

| IC50 (human FXa [1]) | inhibition at 10 mg/kg (human FXa [2]) | Compound | melting point |
| --- | --- | --- | --- |
| 1.2 nM | 62 to 96% | CN1CCc2nc(C(=O)N[C@@H]3C[C@@H](C(=O)N(C)C)CC[C@@H]3NC(=O)C(=O)Nc3ccc(Cl)cc3)sc2C1 [Example 191, N^1-(4-Chlorophenyl)-N^2-((1S,2R,4S)-4-[(dimethylamino)-carbonyl]-2-{[(5-methyl-4,5,6,7-tetrahydrothiazolo[5,4-c]-pyridin-2-yl)carbonyl]amino}cyclohexyl)ethanediamide hydrochloride] | – |
| 5 nM | 62 to 96% | CN1CCc2nc(C(=O)N[C@@H]3C[C@@H](C(=O)N(C)C)CC[C@@H]3NC(=O)C(=O)Nc3ccc(F)cc3)sc2C1 [Example 194, N^1-((1S,2R,4S)-4-[(Dimethylamino)carbonyl]-2-{[(5-methyl-4,5,6,7-tetrahydrothiazolo[5,4-c]pyridin-2-yl)carbonyl]amino}cyclohexyl)-N^2-(4-fluorophenyl)-ethanediamide hydrochloride] | – |
| 1.5 nM | 62 to 96% | CN1CCc2nc(C(=O)N[C@@H]3C[C@@H](C(=O)N(C)C)CC[C@@H]3NC(=O)C(=O)Nc3ccc(Br)cn3)sc2C1 [Example 204, N^1-(5-Bromopyridin-2-yl)-N^2-((1S,2R,4S)-4-[(dimethylamino)-carbonyl]-2-{[(5-methyl-4,5,6,7-tetrahydrothiazolo[5,4-c]-pyridin-2-yl)carbonyl]amino}cyclohexyl)ethanediamide hydrochloride] | – |

| Compound | IC50 (human FXa [1]) | inhibition at 10 mg/kg (human FXa [2]) | melting point |
| --- | --- | --- | --- |
| CN1CCc2nc(C(=O)N[C@@H]3CN(C(=O)NC(C)(C)C)CC[C@@H]3NC(=O)c3cc4cc(Cl)ccc4[nH]3)sc2C1.Cl (relative stereo) [Example 164, N-((3R*,4S*)-1-[(tert-Butylamino)carbonyl]-4-{[(5-chloroindol-2-yl)carbonyl]amino}piperidin-3-yl)-5-methyl-4,5,6,7-tetrahydrothiazolo[5,4-c]pyridine-2-carboxamide hydrochloride] | 4.8 nM | – | 236 to 238 °C (dec.) |
